Peptide text beside a SMILES is read from it. * marks the point of attachment. Cbz = O=C(OCc1ccccc1)*
Test system: C6 cells
Assay: C6 cell spreading on PLYS or CNS myelin with protease inhibitors
Format: cell-based, rat
Conditions: for effect on C6 cell spreading on CNS myelin: Table X
Description: Rat C6, mouse NIH 3T3 and B16 cells were cultured in Dulbecco's modified Eagle's medium (DMEM) supplemented with 10% fetal calf serum (FCS), usually to maximally 70-80% confluency. Cells were harvested with a short trypsin treatment (0.1% in Ca^2+ /Mg^2+ -free Hank's medium for 90 seconds) stopped by addition of FCS in excess, collected by centrifugation. Cells were resuspended in either DMEM/FCS or defined serum-free medium (MEM) and used for experiments. Dissociated rat CNS glial cells were prepared starting from optic nerves of 6-7 days old Lewis rats as described in Section 6.1.1, supra and plated into poly-D-lysine (PLYS) coated wells (100 mm^2, 100 μl medium) at a density of 20,000 cells per well. The culture medium was an enriched L15 medium with 5% rat serum, penicillin and streptomycin. C6, 3T3 and B16 cells were added to 2 day old cultures at a concentration of 30,000 cells per well, incubated for two hours and fixed with warm 4% formalin in phosphate buffer. Inhibitory oligodendrocytes were identified by double labelling using the specific antibodies O1 and O4 (see Section 6.1.3, supra).
Myelin from rat spinal cord (CNS) or sciatic nerve (PNS) purified on a discontinuous sucrose gradient as described in Section 6.1.5., was dried overnight onto PLYS coated wells (20 μg protein/well of 100 mm^2 surface). Unbound membranes were removed by three washes with Ca^2+ /Mg^2+ -free Hank's solution. Myelin coated wells were immediately used in substrate testing assays by the addition of 9,000 cells (C6, 3T3, or B16) per cm^2. Alternatively, we used extracted CNS myelin protein, or SDS-PAGE purified 35 and 250 kD inhibitory proteins reconstituted in liposomes (see Section 7.1.5, supra). Experiments were scored at different time points using a phase contrast microscope equipped with a photocamera. Quantifications were done using a surface integration program; three arbitrary fields were photographed for each well at a magnitude of 80×, at least 25 cells per picture were measured. Each point represents the mean of at least 3 wells±SEM. Results are expressed as μ^2 of projected cell surface, or as degree, which was calculated by subtracting from the projected surface value of a spreading cell, the surface value of a completely spheric cell.

Molecule: O=S(=O)(F)Cc1ccccc1 [PMSF, Phenyl methyl sulfonyl fluoride]
- Spreading on: PLYS (% of control on PLYS) (inhibitor 4.0 mM, 150 minutes): 100 % of control on PLYS
- Spreading on: CNS (% of control on PLYS) (inhibitor 4.0 mM, CNS myelin, 150 minutes): 94 % of control on PLYS
- Inhibition on CNS (%) (inhibitor 4.0 mM, PLYS value minus CNS myelin value): 6%

Molecule: CC(C)C[C@H](NP(=O)(O)O[C@@H]1O[C@@H](C)[C@H](O)[C@@H](O)[C@H]1O)C(=O)N[C@@H](Cc1c[nH]c2ccccc12)C(=O)O [phosphoramidon]
- activity at 300 µM (Rattus norvegicus, C6, 2.5 h, inhibitor 0.3 mM, CNS myelin, 150 minutes, read-out: Spreading on: CNS (% of control on PLYS)): 91%
- inhibition at 300 µM (Rattus norvegicus, C6, inhibitor 0.3 mM, PLYS value minus CNS myelin value): 9%
- effect on C6 cell spreading on CNS myelin: did not impair C6 cell spreading

Molecule: CC(C)C[C@H](NC(=O)[C@H](Cc1ccccc1)NCC(=O)O)C(=O)O [cm-phe-leu, Carboxymethyl-phe-leu]
- effect on C6 cell spreading on CNS myelin: did not inhibit C6 cell spreading
- Spreading on: PLYS (% of control on PLYS) (inhibitor 0.5 mM, 150 minutes): 95 % of control on PLYS
- Spreading on: CNS (% of control on PLYS) (inhibitor 0.5 mM, CNS myelin, 150 minutes): 92 % of control on PLYS
- Inhibition on CNS (%) (inhibitor 0.5 mM, PLYS value minus CNS myelin value): 3%

Molecule: CC(C)C[C@H](NC(=O)[C@@H](O)[C@H](N)Cc1ccccc1)C(=O)O [bestatine]
- effect on C6 cell spreading on CNS myelin: did not impair C6 cell spreading
- Inhibition on CNS (%) (inhibitor 0.1 mM): 0%
- Spreading on: CNS (% of control on PLYS) (inhibitor 0.1 mM, CNS myelin, 150 minutes): 104 % of control on PLYS

Molecule: NC(=O)CNC(=O)CNC(=O)OCc1ccccc1 [cbz-gly-gly-NH2] (Cbz-Gly-Gly-NH2)
- Spreading on: CNS (% of control on PLYS) (inhibitor 1.0 mM, CNS myelin, 150 minutes): 99 % of control on PLYS
- Inhibition on CNS (%) (inhibitor 1.0 mM, PLYS value minus CNS myelin value): 1%

B1: 2-macroglobulin: general protease inhibitor (protein, UniProt P01023 24-1474, looked up)
Alpha-2-macroglobulin: SVSGKPQYMVLVPSLLHTETTEKGCVLLSYLNETVTVSASLESVRGNRSLFTDLEAENDVLHCVAFAVPKSSSNEEVMFLTVQVKGPTQEFKKRTTVMVKNEDSLVFVQTDKSIYKPGQTVKFRVVSMDENFHPLNELIPLVYIQDPKGNRIAQWQSFQLEGGLKQFSFPLSSEPFQGSYKVVVQKKSGGRTEHPFTVEEFVLPKFEVQVTVPKIITILEEEMNVSVCGLYTYGKPVPGHVTVSICRKYSDASDCHGEDSQAFCEKFSGQLNSHGCFYQQVKTKVFQLKRKEYEMKLHTEAQIQEEGTVVELTGRQSSEITRTITKLSFVKVDSHFRQGIPFFGQVRLVDGKGVPIPNKVIFIRGNEANYYSNATTDEHGLVQFSINTTNVMGTSLTVRVNYKDRSPCYGYQWVSEEHEEAHHTAYLVFSPSKSFVHLEPMSHELPCGHTQTVQAHYILNGGTLLGLKKLSFYYLIMAKGGIVRTGTHGLLVKQEDMKGHFSISIPVKSDIAPVARLLIYAVLPTGDVIGDSAKYDVENCLANKVDLSFSPSQSLPASHAHLRVTAAPQSVCALRAVDQSVLLMKPDAELSASSVYNLLPEKDLTGFPGPLNDQDNEDCINRHNVYINGITYTPVSSTNEKDMYSFLEDMGLKAFTNSKIRKPKMCPQLQQYEMHGPEGLRVGFYESDVMGRGHARLVHVEEPHTETVRKYFPETWIWDLVVVNSAGVAEVGVTVPDTITEWKAGAFCLSEDAGLGISSTASLRAFQPFFVELTMPYSVIRGEAFTLKATVLNYLPKCIRVSVQLEASPAFLAVPVEKEQAPHCICANGRQTVSWAVTPKSLGNVNFTVSAEALESQELCGTEVPSVPEHGRKDTVIKPLLVEPEGLEKETTFNSLLCPSGGEVSEELSLKLPPNVVEESARASVSVLGDILGSAMQNTQNLLQMPYGCGEQNMVLFAPNIYVLDYLNETQQLTPEIKSKAIGYLNTGYQRQLNYKHYDGSYSTFGERYGRNQGNTWLTAFVLKTFAQARAYIFIDEAHITQALIWLSQRQKDNGCFRSSGSLLNNAIKGGVEDEVTLSAYITIALLEIPLTVTHPVVRNALFCLESAWKTAQEGDHGSHVYTKALLAYAFALAGNQDKRKEVLKSLNEEAVKKDNSVHWERPQKPKAPVGHFYEPQAPSAEVEMTSYVLLAYLTAQPAPTSEDLTSATNIVKWITKQQNAQGGFSSTQDTVVALHALSKYGAATFTRTGKAAQVTIQSSGTFSSKFQVDNNNRLLLQQVSLPELPGEYSMKVTGEGCVYLQTSLKYNILPEKEEFPFALGVQTLPQTCDEPKAHTSFQISLSVSYTGSRSASNMAIVDVKMVSGFIPLKPTVKMLERSNHVSRTEVSSNHVLIYLDKVSNQTLSLFFTVLQDVPVRDLKPAIVKVYDYYETDEFAIAEYNAPCSKDLGNA
- Spreading on: PLYS (% of control on PLYS) (inhibitor 3.0 μM, 150 minutes): 70 % of control on PLYS
- Spreading on: CNS (% of control on PLYS) (inhibitor 3.0 μM, CNS myelin, 150 minutes): 52 % of control on PLYS
- Inhibition on CNS (%) (inhibitor 3.0 μM, PLYS value minus CNS myelin value): 18%
